Results from ChEMBL document CHEMBL1909046, “DrugMatrix in vitro pharmacology data”.

Legend:
[1] = target: Platelet-activating factor receptor (Homo sapiens, UniProt P25105); format: tissue-based; also: in other assays of this panel Not Active means under 50% inhibition at 10 µM
[2] = target: Mitogen-activated protein kinase 3 (Homo sapiens, UniProt P27361); assay: DRUGMATRIX: Protein Serine/Threonine Kinase, ERK1 enzyme inhibition (substrate: Myelin Basic Protein); parameters: species or system Escherichia coli; conditions: Not Active = under 50% inhibition at 10 µM
Chain of Mitogen-activated protein kinase 3 (P27361 whole entry): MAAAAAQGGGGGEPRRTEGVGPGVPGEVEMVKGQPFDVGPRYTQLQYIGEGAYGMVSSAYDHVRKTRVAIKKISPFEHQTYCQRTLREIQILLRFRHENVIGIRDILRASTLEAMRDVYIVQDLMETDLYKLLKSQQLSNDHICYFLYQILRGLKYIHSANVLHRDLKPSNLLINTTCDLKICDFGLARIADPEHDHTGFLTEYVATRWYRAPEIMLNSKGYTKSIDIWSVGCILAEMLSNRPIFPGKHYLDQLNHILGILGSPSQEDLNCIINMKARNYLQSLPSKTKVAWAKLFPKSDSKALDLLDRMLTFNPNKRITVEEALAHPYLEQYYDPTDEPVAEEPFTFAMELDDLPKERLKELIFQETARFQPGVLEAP

[3] = DRUGMATRIX: Purinergic P2X radioligand binding (ligand: [3H] alpha, beta-Methylene-ATP); format: cell membranes, Oryctolagus cuniculus, New Zealand albino, Urinary bladder, Membrane; conditions: Not Active = under 50% inhibition at 10 µM
Nitric oxide synthase 1 = Nitric oxide synthase 1 (Rattus norvegicus, UniProt P29476); format: tissue-based, Cerebellum; also: in other assays of this panel Not Active means under 50% inhibition at 10 µM
Chain of Nitric oxide synthase 1 (P29476 whole entry): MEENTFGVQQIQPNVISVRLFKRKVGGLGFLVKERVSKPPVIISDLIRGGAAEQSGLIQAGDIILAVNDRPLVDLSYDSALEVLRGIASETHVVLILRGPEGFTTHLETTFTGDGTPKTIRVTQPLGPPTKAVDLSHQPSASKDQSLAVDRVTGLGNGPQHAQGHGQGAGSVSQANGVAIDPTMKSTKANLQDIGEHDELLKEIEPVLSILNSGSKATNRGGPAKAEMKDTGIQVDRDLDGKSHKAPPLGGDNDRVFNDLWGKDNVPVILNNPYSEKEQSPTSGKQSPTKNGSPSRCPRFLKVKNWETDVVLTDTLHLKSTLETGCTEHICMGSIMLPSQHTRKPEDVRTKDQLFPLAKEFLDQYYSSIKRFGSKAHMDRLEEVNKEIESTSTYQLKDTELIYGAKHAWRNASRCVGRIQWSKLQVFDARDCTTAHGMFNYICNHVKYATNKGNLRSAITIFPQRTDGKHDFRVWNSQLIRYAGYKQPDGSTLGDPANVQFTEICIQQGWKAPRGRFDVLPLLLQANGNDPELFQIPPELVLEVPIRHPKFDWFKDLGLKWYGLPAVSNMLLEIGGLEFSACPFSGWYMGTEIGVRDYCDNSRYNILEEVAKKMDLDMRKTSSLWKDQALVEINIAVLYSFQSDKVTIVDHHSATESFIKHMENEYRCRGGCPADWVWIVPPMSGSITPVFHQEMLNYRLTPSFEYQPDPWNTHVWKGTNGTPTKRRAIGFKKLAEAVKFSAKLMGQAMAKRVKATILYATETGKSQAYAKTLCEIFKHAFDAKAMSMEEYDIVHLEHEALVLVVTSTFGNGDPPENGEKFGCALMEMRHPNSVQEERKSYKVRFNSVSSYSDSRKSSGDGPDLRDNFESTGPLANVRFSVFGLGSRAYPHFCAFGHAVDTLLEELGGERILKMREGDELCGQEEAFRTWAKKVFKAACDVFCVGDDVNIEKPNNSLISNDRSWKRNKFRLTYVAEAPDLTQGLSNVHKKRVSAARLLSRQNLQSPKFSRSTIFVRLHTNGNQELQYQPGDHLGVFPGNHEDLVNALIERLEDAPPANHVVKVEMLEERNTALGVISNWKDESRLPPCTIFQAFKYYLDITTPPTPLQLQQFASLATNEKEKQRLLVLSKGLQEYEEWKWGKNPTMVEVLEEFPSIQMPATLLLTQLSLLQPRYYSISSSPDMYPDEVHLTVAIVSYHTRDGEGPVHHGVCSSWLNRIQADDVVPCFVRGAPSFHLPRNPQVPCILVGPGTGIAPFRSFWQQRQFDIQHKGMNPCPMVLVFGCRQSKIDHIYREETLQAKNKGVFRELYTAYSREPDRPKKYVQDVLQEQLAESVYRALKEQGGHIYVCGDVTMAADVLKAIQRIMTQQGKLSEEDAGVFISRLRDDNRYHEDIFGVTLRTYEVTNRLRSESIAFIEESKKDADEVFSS

[4] = target: T1, 5-hydroxytryptamine receptor 1A (Rattus norvegicus, UniProt P19327); format: cell membranes, CHO-K1, Membrane; also: in other assays of this panel Not Active means under 50% inhibition at 10 µM
T1 sequence (P19327 whole entry): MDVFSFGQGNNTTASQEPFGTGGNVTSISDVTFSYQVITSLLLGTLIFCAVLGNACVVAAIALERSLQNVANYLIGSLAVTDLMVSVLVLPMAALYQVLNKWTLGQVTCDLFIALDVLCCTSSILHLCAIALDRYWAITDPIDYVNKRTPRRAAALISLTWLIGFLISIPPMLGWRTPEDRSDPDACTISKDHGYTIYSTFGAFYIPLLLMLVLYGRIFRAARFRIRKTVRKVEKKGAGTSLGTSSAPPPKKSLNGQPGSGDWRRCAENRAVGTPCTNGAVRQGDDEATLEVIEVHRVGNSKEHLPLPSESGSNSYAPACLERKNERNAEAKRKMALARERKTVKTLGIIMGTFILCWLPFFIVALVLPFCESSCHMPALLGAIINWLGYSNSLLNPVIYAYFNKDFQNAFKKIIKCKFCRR

[5] = DRUGMATRIX: GABAA, Chloride Channel, TBOB radioligand binding (ligand: [3H] TBOB); format: cell membranes, Rattus norvegicus, Wistar, Cerebral cortex, Membrane; conditions: Not Active = under 50% inhibition at 10 µM
Calcitonin receptor = target: T2, Calcitonin receptor (Homo sapiens, UniProt P30988); format: cell membranes, Membrane; conditions: t47d; also: in other assays of this panel Not Active means under 50% inhibition at 10 µM
T2 sequence (P30988 whole entry): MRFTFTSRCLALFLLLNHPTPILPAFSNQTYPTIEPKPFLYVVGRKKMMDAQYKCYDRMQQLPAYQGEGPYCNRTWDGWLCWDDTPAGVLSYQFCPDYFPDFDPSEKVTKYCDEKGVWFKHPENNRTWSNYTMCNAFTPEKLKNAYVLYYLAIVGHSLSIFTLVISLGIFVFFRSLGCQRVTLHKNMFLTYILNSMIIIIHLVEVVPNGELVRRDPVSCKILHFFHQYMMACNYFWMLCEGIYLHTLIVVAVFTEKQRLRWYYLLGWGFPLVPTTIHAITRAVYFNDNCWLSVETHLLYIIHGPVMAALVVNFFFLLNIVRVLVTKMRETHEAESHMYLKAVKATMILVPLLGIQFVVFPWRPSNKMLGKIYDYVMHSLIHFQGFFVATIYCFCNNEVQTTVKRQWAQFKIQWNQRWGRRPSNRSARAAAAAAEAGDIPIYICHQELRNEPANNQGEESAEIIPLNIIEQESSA

[6] = DRUGMATRIX: GABAA, Muscimol, Central radioligand binding (ligand: [3H] Muscimol); format: cell membranes, Rattus norvegicus, Wistar, Brain, Membrane; conditions: Not Active = under 50% inhibition at 10 µM

Chain of Platelet-activating factor receptor (P25105 whole entry): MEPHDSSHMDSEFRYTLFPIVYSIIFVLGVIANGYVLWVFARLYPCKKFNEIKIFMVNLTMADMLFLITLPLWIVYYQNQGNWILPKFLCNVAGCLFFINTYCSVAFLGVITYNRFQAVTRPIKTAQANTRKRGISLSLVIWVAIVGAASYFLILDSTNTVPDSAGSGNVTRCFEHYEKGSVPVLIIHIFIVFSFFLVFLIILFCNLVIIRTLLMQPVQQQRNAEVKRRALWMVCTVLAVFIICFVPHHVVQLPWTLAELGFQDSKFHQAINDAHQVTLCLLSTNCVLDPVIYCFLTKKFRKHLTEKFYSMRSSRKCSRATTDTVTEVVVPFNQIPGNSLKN

Molecule | IC50 [1] | IC50 [2] | IC50 [3] | Ki [3] | IC50 (Nitric oxide synthase 1) | IC50 ([4]; cho-k1) | IC50 [5] | Ki [5] | IC50 (Calcitonin receptor) | IC50 [6] | Ki [6] | Ki [1] | Ki [2] | Ki (Nitric oxide synthase 1) | Ki ([4]; cho-k1) | Ki (Calcitonin receptor) | IC50 ([4]; read-out: IC50) [µM] | Ki ([4]; read-out: Ki) [µM] | IC50 ([2]; read-out: IC50) [µM]
CO[C@@H]1[C@@H](OC)[C@H](C)[C@@](O)(CC(=O)O)O[C@H]1[C@H](C)[C@H]1O[C@@]2(CC[C@@](C)([C@H]3CC[C@@](C)([C@@H]4O[C@@H]([C@H]5O[C@](C)(O)[C@H](C)C[C@@H]5C)C[C@@H]4O[C@@H]4C[C@H](OC)[C@@H](OC)[C@H](C)O4)O3)O2)C[C@H](O)[C@H]1C.N [MADURAMICIN] | Not Active | Not Active | Not Active | Not Active | Not Active | Not Active | Not Active | Not Active | Not Active | Not Active | Not Active | – | – | – | – | – | – | – | –
LEAD(IV) ACETATE | Not Active | Not Active | Not Active | Not Active | Not Active | Not Active | Not Active | Not Active | Not Active | Not Active | Not Active | Not Active | Not Active | Not Active | Not Active | Not Active | – | – | –
O=C(c1ccccc1)c1ccc2n1CCC2C(=O)O (configuration not stated) [KETOROLAC] | Not Active | Not Active | Not Active | Not Active | Not Active | Not Active | Not Active | Not Active | Not Active | Not Active | Not Active | – | – | – | – | – | – | – | –
CC[C@H](C)[C@@H](CO[C@@H](Cc1ccccc1)C(=O)N[C@@H](CCS(C)(=O)=O)C(=O)OC(C)C)NC[C@@H](N)CS | Not Active | Not Active | Not Active | Not Active | Not Active | Not Active | Not Active | Not Active | Not Active | Not Active | Not Active | – | – | – | – | – | – | – | –
CN1C(=O)OC(C)(C)C1=O [TRIMETHADIONE] | Not Active | Not Active | Not Active | Not Active | Not Active | Not Active | Not Active | Not Active | Not Active | Not Active | Not Active | – | – | – | – | – | – | – | –
CCC(C)(C)C(=O)O[C@H]1C[C@@H](C)C=C2C=C[C@H](C)[C@H](CC[C@@H]3C[C@@H](O)CC(=O)O3)[C@H]21 [SIMVASTATIN] | Not Active | Not Active | Not Active | Not Active | Not Active | Not Active | Not Active | Not Active | Not Active | Not Active | Not Active | – | – | – | – | – | – | – | –
Cc1ccc(S(=O)(=O)NC(=O)NN2CCCCCC2)cc1 [TOLAZAMIDE] | Not Active | Not Active | Not Active | Not Active | Not Active | Not Active | Not Active | Not Active | Not Active | Not Active | Not Active | – | – | – | – | – | – | – | –
CC(Cl)(Cl)Cl [TRICHLOROETHANE] | Not Active | Not Active | Not Active | Not Active | Not Active | Not Active | Not Active | Not Active | Not Active | Not Active | Not Active | – | – | – | – | – | – | – | –
CC(C)(C)NC[C@H](O)COc1cccc2c1CCCC2=O [LEVOBUNOLOL] | Not Active | Not Active | Not Active | Not Active | Not Active | – | Not Active | Not Active | Not Active | Not Active | Not Active | – | – | – | – | – | 2.9 | 1.66 | –
CCN1CCCC1CNC(=O)c1cc(S(N)(=O)=O)ccc1OC (configuration not stated) [SULPIRIDE] | Not Active | Not Active | Not Active | Not Active | Not Active | Not Active | Not Active | Not Active | Not Active | Not Active | Not Active | – | – | – | – | – | – | – | –
Cc1cccc(C)c1NC(=O)C(C)N (configuration not stated) [TOCAINIDE] | Not Active | Not Active | Not Active | Not Active | Not Active | Not Active | Not Active | Not Active | Not Active | Not Active | Not Active | – | – | – | – | – | – | – | –
CCOC(=O)C1=C(C)NC(C)=C(C(=O)OCC)C1c1ccccc1/C=C/C(=O)OC(C)(C)C [LACIDIPINE] | Not Active | Not Active | Not Active | Not Active | Not Active | Not Active | Not Active | Not Active | Not Active | Not Active | Not Active | – | – | – | – | – | – | – | –
C=CCc1ccc2c(c1)OCO2 [SAFROLE] | Not Active | Not Active | Not Active | Not Active | Not Active | Not Active | Not Active | Not Active | Not Active | Not Active | Not Active | – | – | – | – | – | – | – | –
O=C(OC[C@H]1O[C@@H](OC(=O)c2cc(O)c(O)c(OC(=O)c3cc(O)c(O)c(O)c3)c2)[C@H](OC(=O)c2cc(O)c(O)c(OC(=O)c3cc(O)c(O)c(O)c3)c2)[C@@H](OC(=O)c2cc(O)c(O)c(OC(=O)c3cc(O)c(O)c(O)c3)c2)[C@@H]1OC(=O)c1cc(O)c(O)c(OC(=O)c2cc(O)c(O)c(O)c2)c1)c1cc(O)c(O)c(OC(=O)c2cc(O)c(O)c(O)c2)c1 [TANNIC ACID] | Not Active | – | Not Active | Not Active | Not Active | Not Active | Not Active | Not Active | Not Active | Not Active | Not Active | – | – | – | – | – | – | – | 4.05
CO[C@@]12[C@H](COC(N)=O)C3=C(C(=O)C(C)=C(N)C3=O)N1C[C@@H]1N[C@@H]12 [MITOMYCIN] | Not Active | Not Active | Not Active | Not Active | Not Active | Not Active | Not Active | Not Active | Not Active | Not Active | Not Active | – | – | – | – | – | – | – | –
CN1C[C@H](CNC(=O)OCc2ccccc2)C[C@@H]2c3cccc4c3c(cn4C)C[C@H]21 [METERGOLINE] | Not Active | Not Active | Not Active | Not Active | Not Active | – | Not Active | Not Active | Not Active | Not Active | Not Active | – | – | – | – | – | 0.00617 | 0.00353 | –
Cc1[nH]c(=O)c(C#N)cc1-c1ccncc1 [MILRINONE] | Not Active | Not Active | Not Active | Not Active | Not Active | Not Active | Not Active | Not Active | Not Active | Not Active | Not Active | – | – | – | – | – | – | – | –
O=C1CC[C@@]2(O)[C@H]3Cc4ccc(O)c5c4[C@@]2(CCN3CC2CC2)[C@H]1O5 [NALTREXONE] | Not Active | Not Active | Not Active | Not Active | Not Active | Not Active | Not Active | Not Active | Not Active | Not Active | Not Active | – | – | – | – | – | – | – | –
COC(=O)Nc1nc2ccc(C(=O)c3ccccc3)cc2[nH]1 [MEBENDAZOLE] | Not Active | Not Active | Not Active | Not Active | Not Active | Not Active | Not Active | Not Active | Not Active | Not Active | Not Active | – | – | – | – | – | – | – | –
CC(=O)O[C@]1(C(C)=O)CC[C@H]2[C@@H]3C[C@H](C)C4=CC(=O)CC[C@]4(C)[C@H]3CC[C@@]21C [MEDROXYPROGESTERONE ACETATE] | Not Active | Not Active | Not Active | Not Active | Not Active | Not Active | Not Active | Not Active | Not Active | Not Active | Not Active | – | – | – | – | – | – | – | –
